In patent publication US20240228488A1 (TAKEDA PHARMACEUTICAL COMPANY LIMITED, priority 2021, published 2024):

Experiments:
[1] = molecular target: human activated kallikrein enzyme (Homo sapiens, UniProt P03952); experiment: Plasma kallikrein inhibition, fluorogenic PFR-AMC substrate, 500 pM activated kallikrein format; format: biochemical; conditions: 500 pM activated kallikrein, 300 uM PFR-AMC, 30 min preincubation, 10 min reaction; read-out: Primary Dose Response Assay: Average EC50
How it was run: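 Fluorescence (ex 380/em 460 nm) is read after 10 min of 300 uM PFR-AMC turnover by 500 pM enzyme at RT. Compounds sit with enzyme for 30 min beforehand. Buffer is Tris (pH 7.5) with EDTA, NaCl, PEG-400 and Triton X-100; EC50 values are banded.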

plasma kallikrein = molecular target: T1, plasma kallikrein (Homo sapiens, UniProt P03952); experiment: Neat human plasma assay, FXIIa contact pathway-activated, PFR-AMC substrate; format: biochemical; conditions: citrated human plasma 78% final, 10 nM human FXIIa, 100 μM PFR-AMC; read-out: Human Plasma Assay: IC90
T1 construct: from tissue
T1 sequence (P03952 391-638 limits assumed): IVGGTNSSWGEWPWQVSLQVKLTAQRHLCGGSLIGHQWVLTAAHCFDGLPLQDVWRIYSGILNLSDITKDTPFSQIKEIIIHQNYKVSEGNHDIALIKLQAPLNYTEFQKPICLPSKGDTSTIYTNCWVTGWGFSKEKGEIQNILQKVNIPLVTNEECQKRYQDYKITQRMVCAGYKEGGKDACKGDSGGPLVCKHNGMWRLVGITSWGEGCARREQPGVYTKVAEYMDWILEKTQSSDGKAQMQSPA
T1 sequence (P03952 20-390 partner limits assumed): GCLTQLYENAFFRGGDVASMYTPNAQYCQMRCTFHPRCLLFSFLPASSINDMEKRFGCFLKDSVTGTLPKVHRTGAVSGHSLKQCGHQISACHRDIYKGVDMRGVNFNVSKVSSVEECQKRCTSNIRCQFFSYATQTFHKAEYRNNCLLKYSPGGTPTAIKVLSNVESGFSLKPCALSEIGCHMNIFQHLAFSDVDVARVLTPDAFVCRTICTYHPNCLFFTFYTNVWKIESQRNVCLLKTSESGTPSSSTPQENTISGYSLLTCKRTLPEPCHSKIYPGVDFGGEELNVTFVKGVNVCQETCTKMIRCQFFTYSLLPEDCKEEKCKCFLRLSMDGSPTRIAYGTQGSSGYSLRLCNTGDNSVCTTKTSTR
How it was run: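 Compound inhibition of plasma kallikrein measured as PFR-AMC (100 μM) cleavage rate over 5 min at room temperature in 78% citrated human plasma activated with 10 nM FXIIa (Tris pH 7.5 buffer). IC50/IC90 from 4-parameter fit of rate versus inhibitor concentration.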

Chain of human activated kallikrein enzyme (P03952 391-638 limits assumed): as the sequence (P03952 391-638 limits assumed) above
Chain of human activated kallikrein enzyme (P03952 20-390 partner limits assumed): as the sequence (P03952 20-390 partner limits assumed) above

Compound	EC50 [1]	IC90 (plasma kallikrein)
Cc1ccnc([C@H]2C[C@@H]2C(=O)Nc2cc(NCc3cn4cc(C5CC5)cc(-n5c(=O)n(C)c(=O)n5C)c4n3)ncn2)n1 [Example 367, (1S,2S)-N-(6-(((6-cyclopropyl-8-(2,4-dimethyl-3,5-dioxo-1,2,4-triazolidin-1-yl)imidazo[1,2-a]pyridin-2-yl)methyl)amino)pyrimidin-4-yl)-2-(4-methylpyrimidin-2-yl)cyclopropane-1-carboxamide]	< 1 nM	400 to 1500 nM
Cc1ccnc([C@@]2(F)C[C@@H]2C(=O)Nc2cc(NCc3cn4cc(C5CC5)cc(N5CC(=O)N(C)C5=O)c4n3)ncn2)n1 (racemic) [Example 496, rac-(1S*,2S*)-N-(6-(((6-cyclopropyl-8-(3-methyl-2,4-dioxoimidazolidin-1-yl)imidazo[1,2-a]pyridin-2-yl)methyl)amino)pyrimidin-4-yl)-2-fluoro-2-(4-methylpyrimidin-2-yl)cyclopropane-1-carboxamide]	< 1 nM	< 400 nM
COCc1nc(NC(=O)[C@H]2C[C@@H]2c2nccc(C)n2)cc(OCc2cn3cc(C4CC4)cc(N4CC(=O)N(C)C4=O)c3n2)n1 [Example 551, (1S,2S)-N-(6-((6-cyclopropyl-8-(3-methyl-2,4-dioxoimidazolidin-1-yl)imidazo[1,2-a]pyridin-2-yl)methoxy)-2-(methoxymethyl)pyrimidin-4-yl)-2-(4-methylpyrimidin-2-yl)cyclopropane-1-carboxamide]	< 1 nM	400 to 1500 nM

Now from value to compound:

EC50 [1]	IC90 (plasma kallikrein)	Compound
1 to 10 nM	1500 to 10000 nM	CN1C(=O)CN(c2cc(C3CC3)cn3cc(CNc4cc(NC(=O)[C@@H]5[C@@H](c6cccc(Cl)c6)C5(F)F)ncn4)nc23)C1=O (racemic) [Example 543, rac-(1S*,3S*)-3-(3-chlorophenyl)-N-(6-(((6-cyclopropyl-8-(3-methyl-2,4-dioxoimidazolidin-1-yl)imidazo[1,2-a]pyridin-2-yl)methyl)amino)pyrimidin-4-yl)-2,2-difluorocyclopropane-1-carboxamide]
1 to 10 nM	1500 to 10000 nM	CS(=O)(=O)c1cc(C2CC2)cn2cc(CNc3cc(NC(=O)[C@H]4C[C@@H]4c4cccc(Cl)c4)ncn3)nc12 [Example I-162, (1S,2S)-2-(3-chlorophenyl)-N-(6-(((6-cyclopropyl-8-(methylsulfonyl)imidazo[1,2-a]pyridin-2-yl)methyl)amino)pyrimidin-4-yl)cyclopropane-1-carboxamide]
1 to 10 nM	1500 to 10000 nM	Cc1ccnc([C@H]2C[C@@H]2C(=O)Nc2cc(NCc3cn4cc(C5CC5)cc(-n5[nH]c(=O)n(C)c5=O)c4n3)ncn2)n1 (racemic) [Example 386, rac-(1S*,2S*)-N-(6-(((6-cyclopropyl-8-(4-methyl-3,5-dioxo-1,2,4-triazolidin-1-yl)imidazo[1,2-a]pyridin-2-yl)methyl)amino)pyrimidin-4-yl)-2-(4-methylpyrimidin-2-yl)cyclopropane-1-carboxamide]
< 1 nM	< 400 nM	CN1CCN(c2cc(C3CC3)cn3cc(CNc4ccnc(NC(=O)[C@H]5C[C@@H]5c5cccc(Cl)c5)c4)nc23)CC1 [Example 138, (1S,2S)-2-(3-chlorophenyl)-N-(4-(((6-cyclopropyl-8-(4-methylpiperazin-1-yl)imidazo[1,2-a]pyridin-2-yl)methyl)amino)pyridin-2-yl)cyclopropane-1-carboxamide]
< 1 nM	< 400 nM	O=C(Nc1cc(NCc2cn3cc(C4CC4)cc(C(O)C4CNC4)c3n2)ccn1)[C@H]1C[C@@H]1c1cccc(Cl)c1 (stereo partly drawn) [Example 135, (1S,2S)—N-(4-(((8-(-azetidin-3-yl(hydroxy)methyl)-6-cyclopropylimidazo[1,2-a]pyridin-2-yl)methyl)amino)pyridin-2-yl)-2-(3-chlorophenyl)cyclopropane-1-carboxamide]
